Laboratory results: paper PMC4900597, “Evaluation of the Effects of Pasireotide LAR Administration on Lymphocele Prevention after Axillary Node Dissection for Breast Cancer: Results of a Randomized Non-Comparative Phase 2 Study” (PLoS ONE, 2016)
Starred links: 1 amine or outer side, 2 acyl side, 3 side chain; linkers in the order of their positions; H or OH if unused. Non-standard residues stand in square brackets, D forms with d. Residues, ends and D or L forms follow the SMILES beside them. Groups on a side chain read outwards from the residue. *: point of attachment. Ethylenediamine = C(CN[*:2])N[*:1]; Hyp = O=C(O)[C@@H]1C[C@@H](O)CN1; Phg = N[C@H](C(=O)O)c1ccccc1; CO = O=C([*:1])[*:2]; Bn = c1ccc(C*)cc1

How the values were obtained:
[1] = system: female patients undergoing mastectomy with axillary lymph node dissection for breast cancer; assay: Phase 2 randomised trial, primary outcome: absence of post-operative axillary symptomatic lymphocele; conditions: versus placebo group
Method: All female patients for whom mastectomy and ALND were indicated were eligible for the study, including patients who had received neo-adjuvant chemotherapy. Main exclusion criteria were related to diabetes, cardiac insufficiency, disorder of cardiac conduction or hepatic failure. […] This choice of these variables was decided because they could influence the rate of post-operative lymphocele and so created bias. Randomization was carried out by the Statistics Team at Hôpital Saint Louis in charge of the project (only one randomization list for both centers). […]
The postoperative visit was 28 ± 4 days following surgery (V5), and a routine lymphocele aspiration was warranted and considered positive if the aspirated volume exceeded 120 cc. Again, data on the number of repeated lymphocele aspirations and the volume were collected, and adverse events were recorded.
The primary motivation for this sequential Bayesian strategy were: (1) the uncertainty about the effect of the procedure, (2) the small sample and (3) it allows continuous monitoring of outcomes throughout the trial. […] Additionally, based on the subsequent distribution experimental group, early stopping criteria were calculated to allow early termination of the trial for inefficacy if there was substantial evidence that the estimated response rate was unacceptably low compared to the expected minimal response rate of 60%. […]

sst1 = conditions: ref [14]; cited from earlier work
Excerpt: (§1) The five somatostatin receptors (sst 1 to 5) are expressed in various organs under normal physiological conditions. Somatostatin analogs activate these receptors, which in turn reduce cell activity and inhibit hormone synthesis. Octreotide and lanreotide, which are currently used, have strong affinities for the sst2 receptor and moderate affinities, if any, for the other receptor types.

[2] = cited from earlier work
Method: Differences between the results reported by Carcoforo [10] and Mahmoud and our results could be partially explained. First, the clinical practices were different. In our practice, drains were removed before the seventh post-operative day, whereas in the studies by Carcoforo [10] and Mahmoud^11 the mean duration of drainage was between 7 and 25 days. Second, the other authors both used octreotide 0.1 mg three times a day subcutaneously for 5 [10] or 7 [11] days, starting on the first postoperative day. In our study, we chose a long-acting release formulation of pasireotide (pasir ... || The gradual release form must be injected intramuscularly prior to surgery. An effective plateau concentration is obtained after 10 days regardless of the selected dosage (20, 40, or 60 mg) (3).

[3] = system: female patients undergoing mastectomy with axillary lymph node dissection for breast cancer; assay: Phase 2 trial, secondary endpoints: post-operative course (drainage, aspirations, healing, hospital stay); format: in vivo, human
sst4 = system: sst4; parameters: method as in PMID 11980628; conditions: ref [14]; cited from earlier work
Excerpt: as §1, with “Pasireotide is an injectable somatostatin analog. […] The” for “The”

[4] = system: female patients undergoing mastectomy with axillary lymph node dissection for breast cancer; assay: Phase 2 trial, safety / adverse events; format: in vivo, human; conditions: treatment group; patient with insulin-dependent diabetes hospitalised for hyperglycaemia
Method: The screening was performed during the pre-surgical visit. At the baseline visit (V1) 7 to 10 days prior to surgery, patients signed the informed consent, and pasireotide or the placebo were injected. In addition, a blood sample for pharmacokinetic monitoring was taken. On the day of surgery or the day after surgery (V2), data concerning the operation (type of surgery, duration, intraoperative complications, type and number of drains) and recording of adverse events were performed. On the day of discharge (V3), the summary of the daily collection of postoperative data was completed (daily and total drainage volumes, dates on which drains were removed and overall duration of drainage, postoperative complications, whether aspiration of a symptomatic lymphocele was required, length of hospital stay and recording of adverse events).
A second blood sample for pharmacokinetic monitoring was taken during this visit.
Follow-up visits at 2 months (V6) allowed the recording of late adverse events.

sst5 = system: sst5; parameters: method as in PMID 11980628; conditions: ref [14]; cited from earlier work
Excerpt: as §1

sst3 = system: sst3; parameters: method as in PMID 11980628; conditions: ref [14]; cited from earlier work
Excerpt: as §1

sst2 = system: sst2; parameters: method as in 2 sources, ref [14] = [14]; PMID 11980628; doi:10.1530/eje.0.1460707; 14 Bruns C , Lewis I , Briner U , Meno-Tetang G , Weckbecker G . SOM230: a novel somatostatin peptidomimetic with broad somatotropin release inhibiting factor (SRIF) receptor binding and a unique anti ||| ref [14] (a number printed in a supplementary file, which may have a reference list of its own: not looked up in the article's list); conditions: ref [14]; cited from earlier work
Excerpt: The five somatostatin receptors (sst 1 to 5) are expressed in various organs under normal physiological conditions. Somatostatin analogs activate these receptors, which in turn reduce cell activity and inhibit hormone synthesis. Octreotide and lanreotide, which are currently used, have strong affinities for the sst2 receptor and moderate affinities, if any, for the other receptor types. […] Like natural somatostatin and known analogs, its pharmaceutical efficacy depends on its binding to somatostatin receptors. There are five of these (sst 1 to 5); they are expressed in various bodily tissues under normal physiological conditions. Somatostatin analogs activate these receptors, which in turn reduce cell activity and inhibits hormone synthesis. (7). Octreotide and lanreotide, which are currently used, have a strong affinity for the sst2 receptor and moderate affinity, if any, for the other types.

[5] = system: patients after axillary node dissection in breast cancer; parameters: method as in PMID 12648685; conditions: p = 0.0001, ref [10], cited from earlier work
[6] = system: patients after axillary node dissection in breast cancer; parameters: method as in PMID 17214811; conditions: p = 0.0001, ref [11], cited from earlier work
[7] = system: renal transplantation patients; parameters: method as in PMID 16757259; conditions: patients treated with octreotide; ref [22]; cited from earlier work
[8] = system: women with breast cancer undergoing ALND; conditions: compared to placebo, p = 0.035; ref [12]; cited from earlier work
Method: More recently, Gauthier et al. have reported the results of a phase 3, double-blind, randomized study using Lanreotide Autogel 90 mg LAR to reduce lymphorrhea volumes in the axillary drain during the first 4 postoperative days.

[9] = pasireotide LAR 40 and 60 mg, ref [21]

NCCCC[C@@H]1NC(=O)[C@@H](Cc2c[nH]c3ccccc23)NC(=O)[C@H](c2ccccc2)NC(=O)[C@@H]2C[C@@H](OC(=O)NCCN)CN2C(=O)[C@H](Cc2ccccc2)NC(=O)[C@H](Cc2ccc(OCc3ccccc3)cc2)NC1=O [Pasireotide] (cyclo([Hyp]([CO-Ethylenediamine])[Phg][dW]KY(Bn)F))
Decrease in symptomatic lymphocele development in treated patients [1]: 12.2% | Affinity for sst1 relative to octreotide (sst1): 30 times greater | Time to effective plateau concentration ([2]; gradual release form i.m., regardless of dosage (20, 40, or 60 mg), ref (3) Schmid et al AACE 2005): 10 days | Time of first concentration peak after administration [2, 9]: 1 days | Time of second slow-release peak with maximum concentrations [2, 9]: ~20 days | Day from which the effect was obtained after injection ([2]; pasireotide LAR, ref [21]): seventh | Duration for which the effect remained ([2]; pasireotide LAR, ref [21]): up to 30 days | Residual concentration at day 28 ([2]; patients with neuroendocrine tumors, ref [23]): 16.5 ng/mL | Daily flow axillary drain ([3]; Fig 3, Day 1): 50 mL | Daily flow mastectomy drain ([3]; Fig 3, Day 1): 52,5 ml | Daily flow axillary drain ([3]; Fig 3, Day 2): 50 mL | Daily flow mastectomy drain ([3]; Fig 3, Day 2): 40 mL | Daily flow axillary drain ([3]; Fig 3, Day 3): 65 mL | Daily flow mastectomy drain ([3]; Fig 3, Day 3): 38 mL | Daily flow axillary drain ([3]; Fig 3, Day 4): 50 mL | Daily flow mastectomy drain ([3]; Fig 3, Day 4): 40 mL | Daily flow axillary drain ([3]; Fig 3, Day 5): 75 mL | Daily flow mastectomy drain ([3]; Fig 3, Day 5): 41 mL | Daily flow axillary drain ([3]; Fig 3, Day 6): 50 mL | Daily flow mastectomy drain ([3]; Fig 3, Day 6): 40 mL | Daily flow axillary drain ([3]; Fig 3, Day 7): 35 mL | Daily flow mastectomy drain ([3]; Fig 3, Day 7): 30 mL | Length of time to onset of adjuvant chemotherapy ([3]; median [IQR]): 54 [37.5,60] days | Repeated lymphocele aspirations, total volume ([3]; median [IQR]): 270 [135,415] ml | Duration of drainage, axillary drain ([3]; median [IQR], n = 42): 3 [2,5] days | Duration of drainage, mastectomy drain ([3]; median [IQR], n = 42): 2.5 [1.75,4] days | Length of the hospital stay ([3]; median [IQR], n = 42): 5 [4,6] days | Total flow, axillary drain ([3]; median [IQR], n = 42): 165 [81,400.2] ml | Total flow, mastectomy drain ([3]; median [IQR], n = 42): 132.5 [55.5,226] ml | Patients who underwent systematic lymphocele aspiration on day 28 ([3]; treatment group): Twelve | Affinity for sst4 (sst4): none | Serious adverse events [4]: one | Affinity for sst5 relative to octreotide (sst5): 40 times greater | Affinity for sst3 relative to octreotide (sst3): 5 times greater

Octreotide
Affinity for the sst2 receptor, in words (sst2): strong | Daily drainage volume ([5]; subcutaneous octreotide in immediate postoperative period, untreated group 94.6 ml): 65.4 mL | Time of drain removal after surgery ([5]; untreated group 16.7 days): 7.1 days | Need for postoperative aspiration of lymphoceles ([6]; control 90%): 40% | Mean daily drainage volume ([6]; control 145 ml): 104 mL | Total duration of drainage ([6]; control 25 days): 12.7 days | Affinity for sst4 (sst4): none | Duration of lymphatic leakage following transplantation [7]: shorter duration | Incidence of lymphocele formation after drain removal [7]: lower incidence

lanreotide
Affinity for the sst2 receptor, in words (sst2): strong | Lymphorrhea volume, patients who only underwent an axillary dissection [8]: significantly reduced
